Where only a bound is given, the exact number is not on record here.

This passage reports IC50 results from patent publication US9682995B2, “Amino-substituted isothiazoles” (BAYER PHARMA AKTIENGESELLSCHAFT, priority 2013, dated 2017).

Assay [1] concerns the target human kinase Mps-1 (Homo sapiens (Human), UniProt P33981). As to the kind of experiment: Mps-1 kinase assay (TR-FRET). The settings on record: 10 μM ATP; read-out: Mps1 avg (IC50 [mol/l]). It counts as biochemical. A digest of the protocol: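 GST-tagged full-length human Mps-1 (~0.5 nM) preincubated 15 min with compound, then reacted 60 min at 22 °C with 10 μM ATP and 1 μM biotinylated peptide in Hepes pH 7.7 buffer. Phosphoproduct detected by TR-FRET (Eu anti-phospho-Ser/Thr, SA-XLent); 665/620 ratio normalised to no-inhibitor and no-enzyme controls.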
(TR-FRET usually uses a lanthanide donor and a delayed reading to cut background.)

Assay [2] has as its system HeLa. As to the kind of experiment: Proliferation assay (crystal violet), HeLa. It counts as cell-based. Conditions: Homo sapiens, 96 h, 4 days, read-out: Inhibition of proliferation IC50 HeLa. A digest of the protocol: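 Tumour cells seeded at 1000–5000 cells/well in medium with 10% FCS, dosed after 24 h at 0.001–10 μM (0.5% DMSO final) for 4 days. Cell number read by crystal-violet staining after glutaraldehyde fixation (A595), normalised to zero-point plate (0%) and untreated cells (100%); IC50 from 4-parameter fit.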

human kinase Mps-1, sequence (P33981 whole entry): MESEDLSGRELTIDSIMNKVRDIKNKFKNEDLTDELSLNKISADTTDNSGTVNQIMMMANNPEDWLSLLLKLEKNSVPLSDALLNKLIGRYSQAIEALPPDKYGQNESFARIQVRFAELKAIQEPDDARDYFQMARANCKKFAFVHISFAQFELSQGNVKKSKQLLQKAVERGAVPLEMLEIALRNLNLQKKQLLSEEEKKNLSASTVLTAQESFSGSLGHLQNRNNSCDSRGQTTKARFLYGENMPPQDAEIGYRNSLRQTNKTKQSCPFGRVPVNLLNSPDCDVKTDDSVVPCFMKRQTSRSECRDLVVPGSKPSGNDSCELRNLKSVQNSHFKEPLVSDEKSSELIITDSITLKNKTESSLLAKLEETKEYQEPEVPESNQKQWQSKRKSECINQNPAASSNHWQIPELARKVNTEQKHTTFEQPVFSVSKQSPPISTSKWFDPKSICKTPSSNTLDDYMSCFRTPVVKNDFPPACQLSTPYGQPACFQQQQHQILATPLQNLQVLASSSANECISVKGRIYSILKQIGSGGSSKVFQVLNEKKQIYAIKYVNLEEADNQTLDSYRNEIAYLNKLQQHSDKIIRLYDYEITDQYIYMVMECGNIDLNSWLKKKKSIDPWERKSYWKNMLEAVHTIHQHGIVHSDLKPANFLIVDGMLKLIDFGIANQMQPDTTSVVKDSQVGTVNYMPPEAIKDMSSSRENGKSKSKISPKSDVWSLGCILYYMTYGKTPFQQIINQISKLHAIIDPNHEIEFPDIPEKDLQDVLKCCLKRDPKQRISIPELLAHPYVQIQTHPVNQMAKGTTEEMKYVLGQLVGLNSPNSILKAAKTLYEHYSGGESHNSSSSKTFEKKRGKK

As for `Cc1nsc(Nc2cncc(C(F)(F)F)n2)c1C(=O)Nc1ccc(F)c(F)c1` [Example 82, N-(3,4-Difluorophenyl)-3-methyl-5-{[6-(trifluoromethyl)pyrazin-2-yl]amino}-1,2-thiazole-4-carboxamide], the results for the IC50 in assay [1] and in assay [2] were over 20 µM and 0.11 µM, respectively.
The corresponding values for `Cc1nsc(Nc2ccc(C(F)(F)F)nn2)c1C(=O)Nc1ccc(F)c(F)c1` [Example 83, N-(3,4-Difluorophenyl)-3-methyl-5-{[6-(trifluoromethyl)pyridazin-3-yl]amino}-1,2-thiazole-4-carboxamide] are over 20 µM and 0.92 µM.
As to `COc1ccc(NC(=O)c2c(C)nsc2Nc2cncc(C(F)(F)F)n2)cn1` [Example 84, N-(6-methoxypyridin-3-yl)-3-methyl-5-{[6-(trifluoromethyl)pyrazin-2-yl]amino}-1,2-thiazole-4-carboxamide], the IC50 in assay [1] is over 20 µM; in assay [2], 0.29 µM.
`COc1ccc(NC(=O)c2c(C)nsc2Nc2cnc(C(F)(F)F)cn2)cn1` [Example 85, N-(6-methoxypyridin-3-yl)-3-methyl-5-{[5-(trifluoromethyl)pyrazin-2-yl]amino}-1,2-thiazole-4-carboxamide]: the results for the IC50 in assay [1] and in assay [2] were over 20 µM and 1 µM, respectively.
Regarding `CCc1ccccc1NC(=O)c1c(C)nsc1Nc1cnc2cc(Cl)ccc2n1` [Example 86, 5-[(6-Chloroquinoxalin-2-yl)amino]-N-(2-ethylphenyl)-3-methyl-1,2-thiazole-4-carboxamide], the IC50 is over 20 µM in assay [1] and 1 µM in assay [2].
For the compound `COc1ccc(NC(=O)c2c(C)nsc2Nc2nc3cccnc3s2)cn1` [Example 89, N-(6-Methoxypyridin-3-yl)-3-methyl-5-([1,3]thiazolo[5,4-b]pyridin-2-ylamino)-1,2-thiazole-4-carboxamide], the values for the IC50 in assay [1] and in assay [2] were over 20 µM and 3.6 µM, respectively.
On to `COc1ccc(NC(=O)c2c(C)nsc2Nc2nc3ccc(C)cc3s2)cn1` [Example 90, N-(6-Methoxypyridin-3-yl)-3-methyl-5-[(6-methyl-1,3-benzothiazol-2-yl)amino]-1,2-thiazole-4-carboxamide], for which the IC50 in assay [1] was over 20 µM; in assay [2] it was 10 µM.
For the compound `CCOC(=O)c1cnc(Nc2snc(C)c2C(=O)Nc2ccccc2CC)s1` [Example 92, Ethyl 2-({4-[(2-ethylphenyl)-carbamoyl]-3-methyl-1,2-thiazol-5-yl}amino)-1,3-thiazole-5-carboxylate], the values for the IC50 in assay [1] and in assay [2] were over 20 µM and 10 µM, respectively.
The corresponding values for `COc1ccc(NC(=O)c2c(C)nsc2Nc2ncc(C(=O)N3CCOCC3)s2)cc1F` [Example 93, N-(3-Fluoro-4-methoxyphenyl)-3-methyl-5-{[5-(morpholin-4-ylcarbonyl)-1,3-thiazol-2-yl]amino}-1,2-thiazole-4-carboxamide] are over 20 µM and 10 µM.
Take `COc1ccc(NC(=O)c2c(C)nsc2Nc2cnc3ccccc3n2)cn1` [Example 94, N-(6-Methoxypyridin-3-yl)-3-methyl-5-(quinoxalin-2-ylamino)-1,2-thiazole-4-carboxamide]: the results for the IC50 in assay [1] and in assay [2] were over 20 µM and 10 µM, respectively.
For the compound `CCOC(=O)c1sc(Nc2snc(C)c2C(=O)Nc2ccc(Cl)c(F)c2)nc1C` [Example 95, Ethyl 2-({4-[(4-chloro-3-fluoro-phenyl)carbamoyl]-3-methyl-1,2-thiazol-5-yl}amino)-4-methyl-1,3-thiazole-5-carboxylate], the IC50 in assay [1] was over 20 µM; in assay [2], 1.2 µM.
